In US20250320471A1, “Method for Producing Compounds, Method for Producing Compound Library, Compound Library, and Screening Method” (The University of Tokyo, priority 2021, published 2025):
“And” between values parts separate entries of the source, which are not always exact repeats. Equal values may be shown once. Ends that are not written are not given here. Peptide text beside a SMILES is read from it.

How the values were obtained:
LimF [1] = test: His-prenylation of low molecular weight compounds, peptides and proteins by LimF; format: biochemical, Limnothrix sp. CACIAM 69d; settings: 100 μM LimF, 2 mM GPP, 20 hours; for His-prenylation efficiency (LC/MS): standard conditions
Description: Next, various low molecular weight compounds, peptides, and proteins, including various compounds that have already been approved as pharmaceuticals, were subjected to His-prenylation facilitated by LimF.

PagF = settings: Tyr C5 O-prenylation; cited from earlier work
Fnq26 = target: T1, Fnq26 (Streptomyces virginiae, UniProt A2AXG5); settings: Aromatic C10 O-prenylation; cited from earlier work
T1 sequence (A2AXG5 1-300): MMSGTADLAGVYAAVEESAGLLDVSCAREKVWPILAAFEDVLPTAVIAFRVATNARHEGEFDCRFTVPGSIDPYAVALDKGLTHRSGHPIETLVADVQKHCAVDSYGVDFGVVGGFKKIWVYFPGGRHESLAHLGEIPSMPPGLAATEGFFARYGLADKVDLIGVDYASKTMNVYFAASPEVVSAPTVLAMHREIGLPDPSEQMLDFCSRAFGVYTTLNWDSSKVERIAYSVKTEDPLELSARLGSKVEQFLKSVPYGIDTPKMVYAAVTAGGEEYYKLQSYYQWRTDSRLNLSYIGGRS

PirF = settings: Tyr C10 O-prenylation; cited from earlier work
LimF [2] = test: Steady-state kinetics of prenylation facilitated by LimF (wild type); format: biochemical, Limnothrix sp. CACIAM 69d; settings: Tyr-prenylation (C10 O-), 5 μM LimF, 16° C.
Experimental: Under optimal conditions, the steady-state kinetic parameters of the prenylation reaction of bcLimE2 facilitated by LimF were measured by the methods described below.
The concentration dependence of GPP and MgCl2 in bcLimE2 prenylation reactions facilitated by LimF was measured in reaction systems containing 1 μM LimF, 1 mM or a suitably modified concentration of GPP, 50 mM HEPES pH 7.2, 0.4 mM substrate, 1 mM DTT, and 40 mM or a suitably modified concentration of MgCl2. A reaction solution containing components other than GPP was prepared and preheated to 25° C., and the reaction was then started by adding GPP. After incubating at 25° C., the reaction was stopped at each point and analyzed by LC-MS. Next, the initial rate was calculated as the slope of increase in the amount of prenylation product produced in the linear region. Three separate reactions were carried out under each condition and the mean and standard deviation of the results were used for the analysis.
For GPP concentration dependence and peptide substrate concentration dependence, the kinetic parameters were estimated by fitting the initial rate and GPP substrate concentration or peptide substrate concentration to the Michaelis-Menten model in Graphpad Prism 8.4.2 (GraphPad Prism Software Inc., San Diego, California) software.
Kinetic parameters of the His-prenylation reaction facilitated by LimF were determined based on reactions under optimal conditions using substrates of different concentrations. For the Tyr-prenylation described below, the kinetic parameters were measured under the same conditions except that LimF was set to 5 μM and the reaction temperature was set to 16° C. In order to estimate the kinetic parameters, the initial rate and substrate concentration were fitted to the Michaelis-Menten model in Graphpad Prism 8.4.2 software.
In order to further evaluate the two different prenylation modes by LimF, two teMPs (teR6-H5A/Y7H and teR6-H5A) that undergo efficient His-prenylation and Tyr-prenylation, respectively, were designed and chemically synthesized. Kinetic analysis was carried out according to the above method using these peptides.

bcLimE2 = test: Prenyl group donor tolerance of LimF variants (conversion of bcLimE2); format: biochemical; set-up: key to Final Conversion Efficiency: “n.r.” indicates that the reaction did not proceed; settings: substrate bcLimE2
Experimental: An attempt was made to change the selectivity of LimF with respect to prenyl group donors examined in “2. Evaluation of Enzymatic Activity of LimF” by introducing a mutation into LimF. […], illustrated in FIG. 7(a), was used as the substrate.
For the assay of LimF variants, 100 μM bcLimE2 was incubated individually at a 5 μL scale with 20 to 100 μM LimF variants under conditions of 1 mM GPP or DMAPP, 50 mM HEPES (pH 7.2), 40 mM MgCl2, 1 mM DTT, and DMSO (4%, v/v). After incubating for 16 hours at 25° C., the reaction was stopped by adding 9 times the amount (45 μL) of a 1% TFA aqueous solution. Next, the mixture was incubated on ice for 10 minutes, a precipitate was separated by centrifugation at 4° C. (15300×g, 10 minutes), and 1 μL of supernatant was subjected to LC-MS analysis.
An amino acid forming a small pocket that stores a prenyl group in the crystal structure was selected for the introduction site of the LimF mutation. Specifically, Gly at position 224 was selected, and this was substituted with a larger amino acid. […] This alignment supports the hypothesis that the 224th Gly contributes to prenyl group selectivity.
For the assay of LimF variants, 100 μM bcLimE2 was incubated individually at a […] with 20 to 100 μM LimF variants under conditions of 1 mM GPP or FPP, 50 mM HEPES (pH 7.2), 5 mM MgCl2, 1 mM DTT, and DMSO (4%, v/v). After incubating for 16 hours at 25° C., the reaction was stopped by adding 9 times the amount ([…]) of a 1% TFA aqueous solution. Next, the mixture was incubated on ice for 10 minutes, a precipitate was separated by centrifugation at 4° C. (15300×g, 10 minutes), and 1 μL of supernatant was subjected to LC-MS analysis.
An amino acid forming a small pocket that stores a prenyl group in the crystal structure was selected for the introduction site of the LimF mutation. Specifically, the amino acids at the positions described in the table in the left column of FIG. 19 were replaced with relatively small Ala.
Therefore, substitution of amino acids other than Ala with respect to the W273 position was comprehensively performed (middle column of FIG. 19). As a result, The mutation for W273N and W273T are focused, and in addition to the W273N mutation and the W273T mutation, simultaneous substitution with various amino acids was performed for His at 239, which is an amino acid adjacent to position 273 (right column of FIG. 19).

Aviptadil: synthetic vasoactive intestinal polypeptide (HSDAVFTDNYTRLRKQMAVKKYLNSILN; Aviptadil)
His-prenylation efficiency (LC/MS) (LimF [1]; 125 μM substrate): about 90% | His-prenylation efficiency (LC/MS) (LimF [1]; 125 μM substrate, listed as Avipt ?): 90%

Insulin
His-prenylation efficiency (LC/MS) (LimF [1]; 500 μM substrate): 5%

CCNC(=O)[C@@H]1CCCN1C(=O)[C@H](CCCNC(=N)N)NC(=O)[C@H](CC(C)C)NC(=O)[C@@H](Cc1cn(Cc2ccccc2)cn1)NC(=O)[C@H](Cc1ccc(O)cc1)NC(=O)[C@H](CO)NC(=O)[C@H](Cc1c[nH]c2ccccc12)NC(=O)[C@H](Cc1cnc[nH]1)NC(=O)[C@@H]1CCC(=O)N1 [Histrelin, H-Pyr-His-Trp-Ser-Tyr-D-His(1-Bn)-Leu-Arg-Pro-NHEt]
prenylation of His residue or imidazole C2 carbon by LimF (in words) (LimF [1]): very high efficiency | His-prenylation efficiency (LC/MS) (LimF [1]; 500 μM substrate): 99%

Teduglutide (HGDGSFSDEMNTILDNLAARDFINWLIQTKITD; chains of the INN, looked up)
prenylation of His residue or imidazole C2 carbon by LimF (in words) (LimF [1]): very high efficiency | His-prenylation efficiency (LC/MS) (LimF [1]; 125 μM substrate): 50%

H-Asp-Arg-Val-Tyr-Ile-His-Pro-Phe-OH [ANGIOTENSIN II]
His-prenylation efficiency (LC/MS) (LimF [1]; 500 μM substrate): 1%

N[C@@H](Cc1ccc(O)cc1)C(=O)N[C@@H](Cc1ccc(O)cc1)C(=O)N[C@@H](Cc1ccc(O)cc1)C(=O)O [YYY] (H-Tyr-Tyr-Tyr-OH)
Kcat (PagF): 0.0967 s⁻¹ | Km (PagF): 160 µM

O=C1C(O)=CC(=O)c2c(O)cc(O)cc21 [flaviolin]
Kcat (Fnq26): 0.000217 s⁻¹ | Km (Fnq26): 21 µM

MSGVDYYNPFAGDDAE
Kcat (PirF): 0.0183 s⁻¹ | Km (PirF): 118 µM

tecyclo[wAVSNLPPRPHITYIEC]S [PBm1]
prenylation of His residue or imidazole C2 carbon by LimF (in words) (LimF [1]): very high efficiency | His-prenylation efficiency (LC/MS) (LimF [1]; 500 μM substrate): 99%

Trp-His-Trp-Leu-Gln-Leu-Lys-Pro-Gly-Gln-Pro-Met-Tyr-OH (WHWLQLKPGQPMY-OH) [α-mating factor, cell signaling peptide for yeast]
His-prenylation efficiency (LC/MS) (LimF [1]; 500 μM substrate): 39%

O=C(O)c1ccc(O)cc1 [4-hydroxy-benzoate]
Kcat (Fnq26): 0.00233 s⁻¹ | Km (Fnq26): 5600 µM

Pramlintide: analog of amylin (KCNTATCATQRLANFLVHSSNNFGPILPPTNVGSNTY; Pramlintide)
prenylation of His residue or imidazole C2 carbon by LimF (in words) (LimF [1]): very high efficiency | His-prenylation efficiency (LC/MS) (LimF [1]; 125 μM substrate): 99%

tecyclo[DFRGNATYIPC] [teR6-H5A]
Kcat (LimF [2]): 0.0167 s⁻¹ and 0.0167 ± 0.0017 s⁻¹ | Km (LimF [2]): 7300 ± 1800 µM | Kcat (LimF [2]; listed as tecyclo[DFRGNATYIPC]): 0.0167 s⁻¹

CN/C(=N\C#N)NCCSCc1nc[nH]c1C [Cimetidine, cimetidine]
prenylation of His residue or imidazole C2 carbon by LimF (in words) (LimF [1]): very high efficiency | His-prenylation efficiency (LC/MS) (LimF [1]; 500 μM substrate): 97%

CCCC[C@H](NC(C)=O)C(=O)N[C@H]1CC(=O)NCCCC[C@@H](C(=O)O)NC(=O)[C@H](Cc2c[nH]c3ccccc23)NC(=O)[C@H](CCCN=C(N)N)NC(=O)[C@@H](Cc2ccccc2)NC(=O)[C@H](Cc2cnc[nH]2)NC1=O [Bremelanotide, Ac-Nle-Asp(1)-His-D-Phe-Arg-Trp-Lys(1)-OH]
His-prenylation efficiency (LC/MS) (LimF [1]; 500 μM substrate): 1%

cyclo[MSGVDYYNP] (head-to-tail cyclized)
Kcat (PirF): 0.0117 s⁻¹ | Km (PirF): 116 µM

NC(=O)[C@@H]1CCCN1C(=O)[C@H](Cc1cnc[nH]1)NC(=O)[C@@H]1CCC(=O)N1 [TRH]
His-prenylation efficiency (LC/MS) (LimF [1]; 500 μM substrate): 15%

H-Pyr-His-Trp-Ser-Tyr-D-Leu-Leu-Arg-Pro-NHEt [Leoprorelin]
prenylation of His residue or imidazole C2 carbon by LimF (in words) (LimF [1]): very high efficiency | His-prenylation efficiency (LC/MS) (LimF [1]; 500 μM substrate): 99%

Cyclo(-Ser-Asn-Leu-Ser-Thr-Asu)-Val-Leu-Gly-Lys-Leu-Ser-Gln-Glu-Leu-His-Lys-Leu-Gln-Thr-Tyr-Pro-Arg-Thr-Asp-Val-Gly-Ala-Gly-Thr-Pro-NH2 [Elcatonin]
His-prenylation efficiency (LC/MS) (LimF [1]; 125 μM substrate): 5%

B1: wt-LimF: prenyltransferase derived from Limnothrix sp. CACIAM 69d, SEQ ID NO: 1 (protein, listed as Limnothrix sp.)
chain: MKKRKSSKVFKSTIAPEEKLRYIGNHKQAFDIEPLYPLALFEEFVATTGDCIIECSGKIKQDQLYPARIDLQFSDKHHFHNIHTSIDFLKRAASRTDVNLNLDILATFLAGNFDYSKVQNILAGIDLRQNLGESKLKLFIRIGDYPAKMAVAKHLCNITPESEAMLRSDTLHIGFDFYLDGRSAIELYPELKKDEFNHPFIYNQLKTILSPEALKPLPLCNLFGIGLSPANEANVLYYHLENIEDFLSYFPINDTARRVHDFYLQQEGSRRMWVALSESEMKAGRINNVNLYYSKAFTSQNP
modifications: CACIAM 69d
Final Conversion Efficiency (bcLimE2; prenyl group donor DMAPP): n.r. | Final Conversion Efficiency (bcLimE2; prenyl group donor FPP): 0.0027% | Final Conversion Efficiency (bcLimE2; prenyl group donor GGPP): n.r. | Final Conversion Efficiency (bcLimE2; prenyl group donor GPP): >99%
